From patent US11234437B2 (priority 2017, dated 2022)

What was measured:
Fusarium culmorum [1] = experiment: whole plant or invertebrate; assay type: in vivo; settings: in Triticum aestivum, read-out: control of Fusarium culmorum
[2] = system: Gibberella zeae (Fusarium graminearum); experiment: whole plant or invertebrate; assay type: in vivo; settings: in Triticum aestivum, read-out: control of Gibberella zeae
[3] = system: Magnaporthe grisea (Pyricularia oryzae); experiment: microbe, parasite or virus in culture; assay type: cell-based; settings: read-out: control of Magnaporthe grisea
[4] = system: Monographella nivalis (Microdochium nivale); experiment: Monographella nivalis (Microdochium nivale) / liquid culture (foot rot cereals); assay type: cell-based; settings: compared to untreated control
Method: Monographella nivalis (Microdochium nivale)/Liquid Culture (Foot Rot Cereals)
(§1) Conidia of the fungus from cryogenic storage are directly mixed into nutrient broth (PDB potato dextrose broth). After placing a (DMSO) solution of test compound into a microtiter plate (96-well format), the nutrient broth containing the fungal spores is added. The test plates are incubated at 24° C. and the inhibition of growth is determined photometrically 4-5 days after application.

Sclerotinia sclerotiorum = Sclerotinia sclerotiorum / liquid culture (cottony rot); assay type: cell-based; settings: compared to untreated control
Method: Sclerotinia sclerotiorum/Liquid Culture (Cottony Rot)
as §1, with “Mycelia fragments of a newly grown liquid culture” for “Conidia”, “fungus” for “fungus from cryogenic storage”, “(Vogels” for “(PDB potato dextrose”, “format)” for “format),”, “material” for “spores”, “3-4” for “4-5”

[5] = system: Botryotinia fuckeliana (Botrytis cinerea); experiment: Botryotinia fuckeliana (Botrytis cinerea) / liquid culture (gray mould); assay type: cell-based; settings: compared to untreated control
Method: Botryotinia fuckeliana (Botrytis cinerea)/Liquid Culture (Gray Mould)
as §1, with “(Vogels” for “(PDB potato dextrose”, “3-4” for “4-5”

[6] = system: Glomerella lagenarium (Colletotrichum lagenarium); experiment: Glomerella lagenarium (Colletotrichum lagenarium) / liquid culture (anthracnose); assay type: cell-based; settings: Colletotrichum orbiculare, compared to untreated control
Method: as §1, with “measured” for “determined”, “3-4” for “4-5”

Fusarium culmorum [7] = experiment: microbe, parasite or virus in culture; assay type: cell-based; settings: read-out: control of Fusarium culmorum
Gaeumannomyces graminis = Gaeumannomyces graminis / liquid culture (take-all of cereals); assay type: cell-based; settings: compared to untreated control
Method: as §1, with “Mycelial fragments of” for “Conidia of”, “storage were” for “storage are”

Structure (SMILES)	pest or weed control at 200 ppm (Fusarium culmorum [1]) [%]	pest or weed control at 200 ppm [2] [%]	inhibition of growth at 20 ppm [3] [%]	inhibition of growth at 20 ppm [4] [%]	inhibition of growth at 20 ppm (Sclerotinia sclerotiorum) [%]	inhibition of growth at 200 ppm [5] [%]	inhibition of growth at 200 ppm [6] [%]	inhibition of growth at 200 ppm (Fusarium culmorum [7]) [%]	inhibition of growth at 20 ppm (Gaeumannomyces graminis) [%]	melting point [°C]
CC(C)C[C@@](C)(Cc1ccccc1)NC(=O)c1cnc2c(F)c(F)ccc2c1 [Compound F-13, N-[(1S)-1-benzyl-1,3-dimethyl-butyl]-7,8-difluoro-quinoline-3-carboxamide]	≥ 80	≥ 80	≥ 80							
Cc1cccc2cc(C(=O)N[C@@](C)(Cc3ccccc3)CC(F)(F)F)cnc12 [Compound F-17, N-[(1S)-1-benzyl-3,3,3-trifluoro-1-methyl-propyl]-8-methyl-quinoline-3-carboxamide]			≥ 80	≥ 80	≥ 80					
C[C@](Cc1ccccc1)(CC(F)(F)F)NC(=O)c1cnc2c(Cl)cccc2c1 [Compound F-19, N-[(1S)-1-benzyl-3,3,3-trifluoro-1-methyl-propyl]-8-chloro-quinoline-3-carboxamide]		≥ 80	≥ 80		≥ 80					
C[C@](Cc1ccccc1)(CC(F)(F)F)NC(=O)c1cnc2c(F)c(F)ccc2c1 [Compound F-21, N-[(1S)-1-benzyl-3,3,3-trifluoro-1-methyl-propyl]-7,8-difluoro-quinoline-3-carboxamide]			≥ 80		≥ 80					
C[C@@](Cc1ccccc1)(CC1(F)CC1)NC(=O)c1cnc2c(F)cccc2c1 [Compound F-23, N-[(1R)-1-benzyl-2-(1-fluorocyclopropyl)-1-methyl-ethyl]-8-fluoro-quinoline-3-carboxamide]	≥ 80		≥ 80	≥ 80		≥ 80	≥ 80	≥ 80		
CC1(C[C@](C)(Cc2ccccc2)NC(=O)c2cnc3c(F)cccc3c2)CC1 [Compound F-25, N-[(1R)-1-benzyl-1-methyl-2-(1-methylcyclopropyl)ethyl]-8-fluoro-quinoline-3-carboxamide]	≥ 80	≥ 80	≥ 80		≥ 80	≥ 80	≥ 80	≥ 80		
CC1(C[C@@](C)(Cc2ccccc2)NC(=O)c2cnc3c(F)cccc3c2)CC1 [Compound F-26, N-[(1S)-1-benzyl-1-methyl-2-(1-methylcyclopropyl)ethyl]-8-fluoro-quinoline-3-carboxamide]			≥ 80	≥ 80		≥ 80	≥ 80	≥ 80		
C[C@@](Cc1cccc(F)c1)(CC(F)(F)F)NC(=O)c1cnc2c(F)cccc2c1 [Compound F-27, 8-fluoro-N-[(1R)-3,3,3-trifluoro-1-[(3-fluorophenyl)methyl]-1-methyl-propyl]quinoline-3-carboxamide]	≥ 80	≥ 80	≥ 80	≥ 80		≥ 80	≥ 80	≥ 80		
C[C@](Cc1cccc(F)c1)(CC(F)(F)F)NC(=O)c1cnc2c(F)cccc2c1 [Compound F-28, 8-fluoro-N-[(1S)-3,3,3-trifluoro-1-[(3-fluorophenyl)methyl]-1-methyl-propyl]quinoline-3-carboxamide]	≥ 80	≥ 80	≥ 80		≥ 80	≥ 80	≥ 80	≥ 80		
CC(C)C[C@](C)(Cc1cccc(F)c1)NC(=O)c1cnc2c(F)cccc2c1 [Compound F-29, 8-fluoro-N-[(1R)-1-[(3-fluorophenyl)methyl]-1,3-dimethyl-butyl]quinoline-3-carboxamide]	≥ 80	≥ 80	≥ 80		≥ 80	≥ 80	≥ 80	≥ 80		
CC(C)C[C@@](C)(Cc1cccc(F)c1)NC(=O)c1cnc2c(F)cccc2c1 [Compound F-30, 8-fluoro-N-[(1S)-1-[(3-fluorophenyl)methyl]-1,3-dimethyl-butyl]quinoline-3-carboxamide]	≥ 80		≥ 80	≥ 80		≥ 80	≥ 80	≥ 80		
CC(F)(F)C[C@](C)(Cc1ccccc1)NC(=O)c1cnc2c(F)cccc2c1 [Compound F-32, N-[(1S)-1-benzyl-3,3-difluoro-1-methyl-butyl]-8-fluoro-quinoline-3-carboxamide]		≥ 80	≥ 80		≥ 80					
C[C@@](Cc1ccccc1)(CC(F)(F)F)NC(=O)c1cnc2ccccc2c1 [Compound F-33, N-[(1R)-1-benzyl-3,3,3-trifluoro-1-methyl-propyl]quinoline-3-carboxamide]	≥ 80					≥ 80	≥ 80	≥ 80		
C=C(Cl)C[C@@](C)(Cc1ccccc1)NC(=O)c1cnc2c(F)cccc2c1 [Compound F-36]						≥ 80	≥ 80	≥ 80		
CC(Cc1ccccc1)(CC(F)(F)F)NC(=O)c1cnc2c(F)c(F)ccc2c1 (stereo not drawn) [X.007, N-(1-benzyl-3,3,3-trifluoro-1-methyl-propyl)-7,8-difluoro-quinoline-3-carboxamide]		≥ 80	≥ 80		≥ 80					
CC(C)CC(C)(Cc1ccccc1)NC(=O)c1cnc2c(F)c(F)ccc2c1 (stereo not drawn) [X.008, N-(1-benzyl-1,3-dimethyl-butyl)-7,8-difluoro-quinoline-3-carboxamide]		≥ 80	≥ 80	≥ 80					≥ 80	114 to 116
CC(Cc1cccc(F)c1)(CC(F)(F)F)NC(=O)c1cnc2c(F)cccc2c1 (stereo not drawn) [X.012, 8-fluoro-N-[3,3,3-trifluoro-1-[(3-fluorophenyl)methyl]-1-methyl-propyl]quinoline-3-carboxamide]		≥ 80	≥ 80	≥ 80	≥ 80					149 to 151
CC(Cc1ccccc1)(CC1(F)CC1)NC(=O)c1cnc2c(F)cccc2c1 (stereo not drawn) [X.013, N-[1-benzyl-2-(1-fluorocyclopropyl)-1-methyl-ethyl]-8-fluoro-quinoline-3-carboxamide]			≥ 80	≥ 80	≥ 80	≥ 80	≥ 80	≥ 80		119 to 121
Cc1cccc2cc(C(=O)NC(C)(Cc3ccccc3)CC(C)C)cnc12 (stereo not drawn) [X.017, N-(1-benzyl-1,3-dimethyl-butyl)-8-methyl-quinoline-3-carboxamide]		≥ 80	≥ 80	≥ 80					≥ 80	132 to 133
CC(C)CC(C)(Cc1ccccc1)NC(=O)c1cnc2c(Cl)cccc2c1 (stereo not drawn) [X.018, N-(1-benzyl-1,3-dimethyl-butyl)-8-chloro-quinoline-3-carboxamide]			≥ 80	≥ 80					≥ 80	147 to 148
CC(C)CC(C)(Cc1ccccc1)NC(=O)c1cnc2ccccc2c1 (stereo not drawn) [X.019, N-(1-benzyl-1,3-dimethyl-butyl)quinoline-3-carboxamide]		≥ 80		≥ 80					≥ 80	121 to 123
